Patent publication US20040116346A1, “Affinity small molecules for the EPO receptor” (priority 2002, published 2004)

Tested on: carboplatin-treated 8 week old C57BL mice
Test: Carboplatin induced anemia model (hematocrit)
Assay type: in vivo, mouse
Details: mouse, in vivo
Protocol: Mice were treated with Carboplatin agent (available from Sigma, used regularly in chemotherapy) and a drop in hematocrit was induced. […] (FIGS. 9-11)
Determination of Effect of Non-peptide EPO-R Binding Small Molecule on Hematocrit in Carboplatin-Induced Anemia in 8 Week C57BI Male Mice
Preparation of injection solutions: Vehicle—Saline with 0.1 mg/mL BSA; Add 30 mg of BSA to 300 mL Saline; Vacuum filter under sterile conditions in laminar flow hood; Aliquot the saline (0.1 mg/mL BSA) solution into mini-sorp tubes. At least 41×7 mL aliquots should be prepared. Place caps on the tubes and store refrigerated at 4° C.;
Carboplatin—Dose of 120 mg/kg: Calculations for single injection given to 36 male mice (8 wks old˜25 g): […]×0.025 kg×36 mice=108 mg; Injections are delivered i.p. in a volume of 0.5 cc/mouse=0.5 cc/mouse×36 mice=18 cc; Carboplatin at 6 mg/mL for 36 mice: 108 mg/18 cc.; 120 mg/20 cc; On day of injection, add 120 mg carboplatin (Sigma #C2538) to 20 cc saline in a 100 cc beaker containing a stirring bar. Cover beaker with parafilm. Mix until the carboplatin has completely dissolved.
11 nmole/kg/mouse/day×0.025 kg×12 mice=3.3 nmoles/day; Injections are delivered i.p. in a volume of 0.5 cc/mouse/day=0.5 cc/mouse/day×12 mice=6 cc/day; non-peptide EPO-R binding small molecule for […]: 3.3 nmoles/6 cc each day: 3.85 nmole/7 cc each day; non-peptide EPO-R binding small molecule aliquot at 2 mM=2 nmole/uL; 3.85 nmole per day in 7 cc (0.55 nmole/mL); Therefore: 3.85 nmole divided by 2 nmole/uL stock=1.925 uL at 2 mM; Prepare in advance at least 10 aliquots of non-peptide EPO-R binding small molecule at 2 mM in small microfuge tubes, each with a volume of 2 uL. Freeze these aliquots; On each day of injections, add 1 thawed aliquot of the non-peptide EPO-R binding small molecule at 2 mM containing a 2 uL volume to a tube containing 7 cc of sterile saline (0.1 mg/mL BSA). […]

Cc1ccc(Cl)cc1Nc1nc2nc(C)c(NCC3CC3)cn2n1 [Compound E5]
hematocrit levels in animals treated with carboplatin: restore hematocrit levels
